From US20230173071A1, “TREATMENT OF MYOPIA AND OTHER OCULAR CONDITIONS USING SINGLET OXYGEN GENERATED FROM DYES ACTIVATED BY NEAR-INFRARED LIGHT” (California Institute of Technology, priority 2018, published 2023) come the findings set out here.

Experiment [1] concerns porcine sclera. Briefly: Young's Modulus measurement (Instron) of irradiated porcine sclera strips. Also noted: species or system porcine (pig). To be noted: porcine sclera strips soaked in 2 mg/mL ICG, 0.01% BAC in D2O; 810 nm LED 200 mW, total 10 minutes. On the procedure: All Young's Modulus values were determined using an Instron equipped with screw side action tensile grips and a load cell rated for max 100 N. Rates of pulling were between 3 mm/minute and 5 mm/minute. The software calculated the Young's Modulus from the force vs. distance/time.
The treatment was also tested on a more biologically relevant sample—unscalded porcine (pig) eyes (Sierra For Medical Science). Eyes were cut around the globe to make a 1 cm×5-6 cm strip of pig sclera for testing. Measurements were accumulated over several batches of eyes. Storage solutions before treatment (irradiation) contained 20% Dextran (MW ˜40-45k) in D2O while post-treatment storage was Dulbecco's buffer with 20% Dextran (MW ˜40-45k). An ICG/BAC/D2O soak solution was made to the concentration of 2 mg/mL ICG and 0.01% BAC. Strips for treatment were soaked in the solution for 0.5-2 hours. Irradiation was carried out similarly to the bovine gelatin strips—810 nm LED, 200 mW, and a 1 cm×1 cm irradiation zone. To ensure sufficient irradiation without sample dehydration, irradiation duration was kept at 5 minutes but performed twice—i.e. the sample was moved down 1 cm every 5 minutes and then the process was repeated—in order to give a total of 10 minutes of irradiation. […] The Young's Modulus values were calculated by the software and compiled to compare untreated vs. treated strips. […]

Experiment [2] relates to sclera of enucleated young rabbit eyes. The experiment can be described thus: Eye expansion test - whole eye treatment, scleral area analysis. Conditions: for reduction in expansion, treated vs untreated: ICG with sodium iodide (NaI) additive in D2O; for reduction in expansion, fully treated eyes vs NIR light only treated eyes: ICG/NaI/D2O with NIR light. The method, then: Enucleated young rabbit eyes were provided from collaborators at University of California, San Francisco (UCSF). These were shipped overnight and used within 1-4 days. Upon arrival, they were stored in Dulbecco's buffer in a 4° C. refrigerator until use. They were trimmed of fat and muscle to provide a smooth surface for easy identification of changes to the size. All irradiations used an 810 nm LED (Thor) set to a power of ˜200 mW.
Untreated eyes received no further modification and were stored in Dulbecco's buffer in the refrigerator until use. Eyes to be treated had their epithelial layer on the cornea removed. An ethanol-soaked Kim wipe was applied to the cornea for two minutes and then a scalpel blade was used to scrape the layer off. Removal was confirmed using a fluorescein strip and long UV light. […] The eye was placed cornea up on a damp (D2O) gauze pad and then placed on a 10 mL beaker. The LED was placed above the eye to irradiate down for 10 minutes with 5-15 drops of either the soaking solution or D2O being applied every 2 minutes to keep the sample hydrated. Once completed, the irradiation process was repeated for the reverse side of the eye (by the retina), then the eye on its side (half cornea & sclera), and finally on the reverse side of the sideways eye. This was a total of four 10 minute irradiations aimed to treat the whole eye.
The eye expansion setup followed the protocol outlined below. The eyes were placed on a stand and 30 gauge needle was inserted from underneath. The chamber was filled with Dulbecco's buffer and two different antibiotics mixtures—an ophthalmic solution of Trimethoprim Sulfate and Polymyxin B Sulfate and an ophthalmic ointment of Neomycin and Polmyxin B Sulfates and Bacitracin Zinc. A low pressure (˜22 mm Hg) was applied for one hour to equilibrate the eyes prior to applying a higher pressure (˜85 mm Hg) for the experiment. This is done by raising an IV bag to a predetermined height above the eye chamber. The higher pressure was applied from 12-36 hours (or until rupture) depending on the experiment. Two photos were taken every 15 minutes during both the low and high-pressure applications. […]
Image J was used to calculate the scleral area for comparison. […] Measured scleral areas where then converted to percent change from the initial time point (when the higher pressure was first applied). These values were averaged and standard errors calculated for comparison.
To evaluate the ability of ICG to crosslink the sclera, a similar set of eye expansion tests was performed. […] To quantify this observation, the area of the sclera was calculated using Image J for the initial and 12-hour time points (FIGS. 7(A-B)). Expansion from the initial time point was calculated and compared as a percent.

`CC1(C)C(/C=C/C=C/C=C/C=C2\N(CCCCS(=O)(=O)O)c3ccc4ccccc4c3C2(C)C)=[N+](CCCCS(=O)(=O)[O-])c2ccc3ccccc3c21` [ICG, indocyanine green]: the “increase of the Young's Modulus, irradiated (treated) vs non-irradiated (untreated) sample” value in experiment [1] stood at 21%. Also, the “reduction in expansion, treated vs untreated” value in experiment [2] (12 hour time point) is reported as roughly 62%; in experiment [2] (24 hour time point), 70%. Also, the “reduction in expansion, fully treated eyes vs NIR light only treated eyes” value in experiment [2] (12 hour time point) is roughly 69%; in experiment [2] (24 hour time point), roughly 72%.
